Assay in all cases: DTP human tumour cell line panel, 48 h
Test [1] has as its system SK-MEL-28 melanoma.
For test [2], the system named is HS 578T breast.
The subject of test [3] is MOLT-4 leukemia.
The test system of test [4] is SNB-19 CNS.
The test system of test [5] is SF-295 CNS.
The subject of test [6] is UO-31 renal.
The test system of test [7] is HOP-92 NSCLC.
For test [8], the system named is OVCAR-3 ovarian.
The subject of test [9] is OVCAR-5 ovarian.
Test [10] has as its system PC-3 prostate.
Test [11] relates to A498 renal.

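Results reflect a 48-hour exposure of cells in 96-well plates to compound at five concentrations. At the TGI there is no net growth.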

Consider `Fc1cccc(C2SCc3nc4cc5ccccc5cc4n32)c1` (stereo not given), for which the TGI in test [1], in test [2], in [3], in [4], in test [5] and in test [6] was over 100 µM throughout. For the same molecule, the TGI in [7], in test [8], in test [9] and in [10] was over 100 µM each time.
Regarding `COC(=O)CC(CNC(=O)OCc1ccccc1)OCc1ccc(OC)cc1` (stereo not given), the TGI in test [1], in test [3], in test [11], in [4], in test [5] and in test [6] was over 100 µM each time. The TGI in [7], in [8], in test [9] and in test [10] was over 100 µM each time.
Turning to `C=C(CCC/C(C)=C/C=C/[C@H](C)CCCc1ccoc1)C[C@@H]1OC(=O)[C@H](C)[C@@H]1O`, the TGI in [1] came out at 15.6 µM; in test [3], 29.5 µM; in test [11] it was 17.2 µM; in test [4] it was 17.1 µM; in test [5], 22.9 µM; in test [6], 15.6 µM. Moreover, the TGI came out at 18.5 µM in test [7], 17.6 µM in test [8], 23.8 µM in [9] and 17.2 µM in test [10].
As to `COc1ccc2[nH]c3c4c(cc(-c5ccccc5)c3c2c1)C(=O)N(c1ccccc1)C4=O`, the TGI in [1] is over 100 µM; in test [3] it was over 100 µM; in test [11] it was over 73.8 µM; in test [4], over 81.8 µM; in test [5] it was 33.7 µM; in [6], over 72 µM. The values for the TGI in test [7], in test [8] and in test [9] were 74 µM, 55.2 µM and over 100 µM, respectively.
With `O=C(Cc1ccccc1)N/N=C(/c1nc2ccc([N+](=O)[O-])cc2[nH]c1=O)C(O)c1ccc(C(O)/C(=N/NC(=O)Cc2ccccc2)c2nc3ccc([N+](=O)[O-])cc3[nH]c2=O)cc1` (stereo not given), the TGI in test [1], in test [11], in test [4], in test [5], in test [7] and in test [8] was over 100 µM throughout. For the same molecule, in [9], the TGI was over 100 µM.
As for `O=C1Oc2cc3c(c4cccc1c24)OCN(c1ccccc1)C3`, the total growth inhibition concentration (TGI) in test [1], in [3], in [11], in test [4], in test [5] and in test [6] was over 100 µM throughout. Also, the TGI in test [7], in [8] and in test [9] was over 100 µM each time.
`CC(=O)Oc1ccc(Nn2c3ccccc3c3ccccc32)c(C)c1`: the TGI in test [1] is over 100 µM; in test [3], 77.7 µM; in test [4] it was over 100 µM; in test [5] it was 73.7 µM; in test [6], over 100 µM; in [7], 64 µM. Moreover, the TGI in [8] and in [9] was over 100 µM throughout.
Take `O=[N+]([O-])c1ccc(CN=C2NNS(=O)(=O)c3ccccc32)cc1`: the concentration for total growth inhibition (TGI) in [3], in test [11], in test [4], in test [5], in test [6] and in [7] was over 100 µM each time. The TGI in [8] and in test [9] was over 100 µM throughout.
As for `CCc1ccc(Nc2cc(=O)n(C)c(SCc3ccccc3)n2)cc1`, the TGI is over 100 µM in test [2]; over 100 µM in test [3]; 29.7 µM in [11]; over 100 µM in test [4]; over 100 µM in test [5]; over 100 µM in [6]. Further, the TGI in [7], in test [8] and in test [9] was over 100 µM each time.
For `O=C1CCN2C(=N1)Sc1ccccc12`, the TGI in test [1], in test [2], in test [3], in [4], in test [5] and in test [7] was over 100 µM each time. Besides, the TGI in [8], in test [9] and in [10] was over 100 µM each time.
As to `Cc1ccc(C(=O)N2CCCCC2)cc1N=NN(C)C`, the total growth inhibition concentration (TGI) in test [1], in test [3], in test [11], in test [4], in [5] and in test [6] was over 100 µM throughout. Besides, the TGI in test [8] and in [9] was over 100 µM in each case.
`CN1c2ccccc2C(=O)NC12CCNCC2`: the TGI in [1] is over 100 µM; in test [2], 40 µM; in [3] it was over 100 µM; in test [11] it was over 100 µM; in [4], over 100 µM; in [5] it was over 100 µM. The TGI in [6], in test [7] and in test [9] was over 100 µM each time.
`CCCCCC#COC1CC(C)CC[C@@H]1C(C)C` (stereo not given in full): the TGI in test [1], in test [4], in test [5], in test [6], in [7] and in test [8] was over 100 µM throughout. This molecule gave a TGI in test [9] of over 100 µM.
In the case of `O=C(CCN1CCC(CCO)CC1)Nc1ccc2c(c1)C(=O)c1ccc(NC(=O)CCN3CCC(CCO)CC3)cc1C2=O`, the TGI was over 100 µM in test [1]; 24.5 µM in test [3]; 92.8 µM in test [11]; 68.8 µM in test [4]; over 100 µM in [5]; over 100 µM in test [6]. For the same molecule, the results for the TGI in test [7], in test [8] and in test [9] were over 100 µM, 24.7 µM and over 100 µM, respectively.
`COC1=CC(=O)c2c(cc3c(c2O)-c2c(OC)cc4cc5c(c(O)c4c2OC(=O)CC(C)(O)C3)C(=O)CC(C)(O)C5)C1=O` (stereo not given): the TGI turned out to be 4.36 µM in test [1]; 6.67 µM in [3]; 4.42 µM in [11]; 4.13 µM in test [4]; 3.48 µM in test [5]; 3.71 µM in [6]. Also, the TGI was determined as 4.12 µM in test [7], 2.15 µM in test [8] and 4.27 µM in [9].
As to `O=C1C=CC(=O)c2cc(Sc3ccccc3)c(=O)c(Sc3ccccc3)cc21`, the TGI in test [1], in test [3], in test [11], in test [4], in [5] and in test [6] was over 100 µM each time. In addition, the TGI is 50.5 µM in [7] and over 100 µM in test [8].
In the case of `CC1CCC2CC1NC(=O)CCOCCC(=O)NC2(C)C` (stereo not given), the TGI in test [1], in test [3], in [4], in [5], in test [6] and in test [7] was over 100 µM throughout. The TGI in test [8], in [9] and in test [10] was over 100 µM each time.
As for `COc1ccc(NS(=O)c2c(C)cc(C)cc2C)cc1` (stereo not given), the TGI in [1] is over 100 µM; in [2], over 100 µM; in test [3], over 100 µM; in [4], over 100 µM; in test [5], over 100 µM; in test [6], 61.1 µM. In addition, the TGI in [8] and in [9] was over 100 µM throughout.
Take `Oc1c(Cl)c(Cl)c(O)c(CCNc2nccs2)c1Cl`: the TGI in [1] is 67.9 µM; in test [3] it was 94.3 µM; in test [4], 44.1 µM; in [5], 41.5 µM; in test [6] it was 32.9 µM; in test [7] it was over 100 µM. The TGI in [8] was determined as 33.3 µM; in test [9], 39 µM; in [10] it was 45.1 µM.
For `CC1=NC=C(O)c2ccccc2O1`, the TGI in test [1], in test [3], in [11], in [4], in test [5] and in test [6] was over 100 µM throughout. Moreover, the TGI in test [7] and in test [8] was over 100 µM each time.
For `CN1CC=C(c2cccn2C)CC1`, the TGI in test [1], in test [2], in [3], in [4], in [5] and in test [6] was over 100 µM in each case. Also, the TGI in test [8], in test [9] and in test [10] was over 100 µM throughout.
With `c1ccc(-c2cc(-c3ccncc3)cc(-c3ccncc3)n2)cc1`, the concentration for total growth inhibition (TGI) in test [1], in test [2], in test [3], in test [4], in [5] and in test [6] was over 100 µM throughout. Moreover, the TGI in [8], in [9] and in [10] was over 100 µM throughout.
Take `C=CC(=O)NCNC(=O)C=C`: the TGI in test [1], in test [3], in test [11], in test [4], in [5] and in test [6] was over 100 µM in each case. Moreover, the TGI in test [7], in test [8] and in test [9] was over 100 µM each time.

A word on the TGI: it is the concentration giving total growth inhibition. Low readings indicate greater sensitivity of the cells, high ones lower sensitivity of the cells.

The values above are taken from PubChem BioAssay (NCI).
